The values that follow come from US20080194585A1, “Fungicidal Pyrazine Derivatives” (priority 2005, published 2008).

Marks after values point to notes of the source that are not given here.

One assay deals with Pythium aphanidermatum. Nature of the assay: Test A: bluegrass pythium blight, preventive spray on bluegrass seedlings.
The test system of assay [1] is Colletotrichum orbiculare. Nature of the assay: Test B: cucumber Colletotrichum anthracnose, preventive spray on cucumber seedlings.
The next assay deals with Phytophthora infestans. Nature of the assay: whole plant or invertebrate. Type of assay: in vivo.
In another assay the test system is Plasmopara viticola. Nature of the assay: Test D: grape downy mildew, spray after inoculation of grape seedlings. Type of assay: in vivo. The text has this: Upon removal, disease ratings were made. […] A dash (-) indicates no test results.
In another assay the test system is Septoria nodorum. Nature of the assay: Test H: wheat glum blotch, preventive spray on wheat seedlings.
The next assay relates to Rhizoctonia oryzae. Nature of the assay: Test G: turf brown patch, preventive spray on creeping bent grass seedlings.
Assay [2] deals with Puccinia recondita f. sp. tritici. Nature of the assay: Test K: wheat leaf rust, preventive spray on wheat seedlings.
In a further assay the test system is Septoria tritici. Nature of the assay: Test J: wheat leaf blotch, preventive spray on wheat seedlings. The format is in vivo. An excerpt:
A dash (-) indicates no test results.

The subject of the next assay is Botrytis cinerea. Nature of the assay: Test E: tomato botrytis, preventive spray on tomato seedlings.
In assay [3] the test system is Erysiphe graminis f. sp. tritici. Nature of the assay: Test L: wheat powdery mildew, preventive spray on wheat seedlings.
The subject of a further assay is Sclerotinia sclerotiorum. Nature of the assay: Test C: cucumber white mold, preventive spray on cucumber seedlings.
Setting [4] is: 40 ppm (marked *), 100 = 100% disease control, 0 = no control.

Protocol for Rhizoctonia oryzae: (the causal agent of turf brown patch) and incubated in a saturated atmosphere at 27° C. for 24 h, and then moved to a growth chamber at 27° C. for 5 days, after which disease ratings were made.
Protocol for Septoria nodorum: (the causal agent of wheat glum blotch) and incubated in a saturated atmosphere at 20° C. for 48 h, and then moved to a growth chamber at 22° C. for 5 days, after which disease ratings were made.

As to `CC(C)Cn1c(-c2ccc(F)cc2)c(Cl)nc(-n2cncn2)c1=O` [compound 142], the “Test A disease control rating” value in the assay on Pythium aphanidermatum (200 ppm) stood at 64%. Besides, in [1] (200 ppm), the “Test B disease control rating” value stood at 16%. The “Test F disease control rating” value with Phytophthora infestans (200 ppm) amounted to 0%. For the same compound, the “Test D disease control rating” value with Plasmopara viticola (200 ppm) amounted to 4%. Further, the “Test H disease control rating” value with Septoria nodorum (200 ppm) was determined as 100%. Further, the “Test G disease control rating” value with Rhizoctonia oryzae (200 ppm) is 0%. The “Test K disease control rating” value in assay [2] (200 ppm) was found to be 27%. Further, the “Test J disease control rating” value in the assay with Septoria tritici (200 ppm) amounted to 100%. Further, the “Test E disease control rating” value in the assay on Botrytis cinerea (200 ppm) turned out to be 100%. Further, the “Test L disease control rating” value in assay [3] (200 ppm) is 81%. The “Test C disease control rating” value with Sclerotinia sclerotiorum (200 ppm) is reported as 0%.

For `CC(C)Cn1c(-c2c(F)cccc2F)c(Cl)nc(-n2ccnn2)c1=O` [compound 215], in the assay with Pythium aphanidermatum (40 ppm (*)), the “Test A disease control rating” value was 0* %. For the same compound, the “Test B disease control rating” value in [1] (40 ppm (*)) is 0* %. Also, in the assay with Phytophthora infestans (40 ppm (*)), the “Test F disease control rating” value is reported as 0* %. Moreover, the “Test D disease control rating” value in the assay on Plasmopara viticola (40 ppm (*)) is reported as 29* %. For the same compound, in the assay with Septoria nodorum (40 ppm (*)), the “Test H disease control rating” value is listed as 0* %. Moreover, the “Test G disease control rating” value in the assay with Rhizoctonia oryzae (40 ppm (*)) is 0* %. In addition, the “Test K disease control rating” value in [2] (40 ppm (*)) is recorded as 55* %. Besides, in the assay on Septoria tritici (40 ppm (*)), the “Test J disease control rating” value is on record as 0* %. For the same compound, the “Test E disease control rating” value in the assay on Botrytis cinerea (40 ppm (*)) is 99* %. Moreover, the “Test L disease control rating” value in [3] (40 ppm (*)) was 0* %. Further, in the assay with Sclerotinia sclerotiorum (40 ppm (*)), the “Test C disease control rating” value is 0* %.

`CSCC(C)n1c(-c2c(F)cccc2F)c(Cl)nc(-n2cccn2)c1=O` (stereo not drawn) [compound 198]: the “Test A disease control rating” value in the assay with Pythium aphanidermatum (40 ppm (*)) was 0* %. The “Test B disease control rating” value in [1] (40 ppm (*)) is recorded as 0* %. Besides, the “Test F disease control rating” value with Phytophthora infestans (40 ppm (*)) is reported as 0* %. In addition, in the assay with Plasmopara viticola (40 ppm (*)), the “Test D disease control rating” value was 8* %. Moreover, in the assay on Septoria nodorum (40 ppm (*)), the “Test H disease control rating” value is recorded as 0* %. In addition, in the assay on Rhizoctonia oryzae (40 ppm (*)), the “Test G disease control rating” value is reported as 0* %. Besides, the “Test K disease control rating” value in assay [2] (40 ppm (*)) was 0* %. The “Test J disease control rating” value in the assay with Septoria tritici (40 ppm (*)) was 0* %. Also, the “Test E disease control rating” value in the assay on Botrytis cinerea (40 ppm (*)) is 0* %. In addition, the “Test L disease control rating” value in assay [3] (40 ppm (*)) was 0* %. The “Test C disease control rating” value with Sclerotinia sclerotiorum (40 ppm (*)) is reported as 0* %.

As for `Cc1ccn(-c2nc(C)c(-c3c(F)cccc3F)n(CC(C)C)c2=O)n1` [compound 243], the “Test A disease control rating” value in the assay on Pythium aphanidermatum (40 ppm (*)) was 0* %. The “Test B disease control rating” value in assay [1] (40 ppm (*)) is 0* %. Further, the “Test F disease control rating” value with Phytophthora infestans (40 ppm (*)) is given as 0* %. The “Test D disease control rating” value in the assay on Plasmopara viticola (40 ppm (*)) is 0* %. Further, the “Test H disease control rating” value in the assay on Septoria nodorum (40 ppm (*)) is 0* %. Further, in the assay with Rhizoctonia oryzae (40 ppm (*)), the “Test G disease control rating” value is given as 68* %. In addition, in [2] (40 ppm (*)), the “Test K disease control rating” value was 45* %. In addition, in the assay on Septoria tritici (40 ppm (*)), the “Test J disease control rating” value is given as 86* %. Further, the “Test E disease control rating” value in the assay on Botrytis cinerea (40 ppm (*)) is on record as 100* %. For the same compound, the “Test L disease control rating” value in assay [3] (40 ppm (*)) was 98* %. Further, the “Test C disease control rating” value in the assay with Sclerotinia sclerotiorum (40 ppm (*)) is 0* %.

`CC(C)n1c(-c2c(F)cccc2F)c(Cl)nc(-n2cncn2)c1=O` [compound 33]: the “Test A disease control rating” value in the assay with Pythium aphanidermatum (200 ppm) worked out at 0%. Also, in [1] (200 ppm), the “Test B disease control rating” value was 0%. In addition, the “Test F disease control rating” value in the assay with Phytophthora infestans (200 ppm) is on record as 0%. Besides, the “Test D disease control rating” value with Plasmopara viticola (200 ppm) was found to be 34%. Also, the “Test H disease control rating” value in the assay with Septoria nodorum (200 ppm) amounted to 100%. In addition, the “Test G disease control rating” value in the assay with Rhizoctonia oryzae (200 ppm) came to 100%. In assay [2] (200 ppm), the “Test K disease control rating” value was found to be 100%. Moreover, the “Test J disease control rating” value in the assay on Septoria tritici (200 ppm) is recorded as 100%. Also, the “Test E disease control rating” value in the assay on Botrytis cinerea (200 ppm) stood at 100%. The “Test L disease control rating” value in [3] (200 ppm) was 0%. In addition, in the assay on Sclerotinia sclerotiorum (200 ppm), the “Test C disease control rating” value is on record as 16%.

For `Cc1cc(C)c(-c2c(Cl)nc(-n3cccn3)c(=O)n2CC(C)C)c(C)c1` [compound 254], the “Test A disease control rating” value with Pythium aphanidermatum (setting [4]) was 0* %. Also, the “Test B disease control rating” value in assay [1] (setting [4]) is on record as 0* %. Moreover, the “Test F disease control rating” value in the assay with Phytophthora infestans (setting [4]) was 0* %. The “Test D disease control rating” value with Plasmopara viticola (setting [4]) is 0* %. Further, the “Test H disease control rating” value with Septoria nodorum (setting [4]) is 0* %. For the same compound, the “Test G disease control rating” value with Rhizoctonia oryzae (setting [4]) was 41* %. Further, in assay [2] (setting [4]), the “Test K disease control rating” value is on record as 59* %. Besides, in the assay with Septoria tritici (setting [4]), the “Test J disease control rating” value was 99* %. Besides, the “Test E disease control rating” value in the assay on Botrytis cinerea (setting [4]) is on record as 94* %. Besides, the “Test L disease control rating” value in [3] (setting [4]) is 54* %. Further, the “Test C disease control rating” value with Sclerotinia sclerotiorum (setting [4]) is on record as 0* %.
